Article PMC6753678, “Fueling Open Innovation for Malaria Transmission-Blocking Drugs: Hundreds of Molecules Targeting Early Parasite Mosquito Stages” (Frontiers in Microbiology, 2019)

Legend:
HepG2 cells = experiment: HepG2 cytotoxicity assay; conditions: unified HepG2 cytotoxicity across the three screens
Procedure, shortened: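 Percent inhibition derived from fluorescent viability readout, normalised to DMSO (negative) and 50 μM doxorubicin (positive). Compound incubation lasted 48 h at 37°C, 5% CO2, with 2,500 HepG2 cells/well in MEM plus 10% FBS and 1% NEAA.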

[1] = test system: P. falciparum female gametocytes; set-up: method as in Miguel-Blanco et al 2017; conditions: ref Miguel-Blanco et al 2017; read-out: Pf FGAA IC50; cited from earlier work
[2] = test system: P. falciparum female gametocytes; experiment: P. falciparum female gametogenesis assay (Pf FGAA); conditions: 1: YES; 0: NO; >10-fold selectivity over cytotox

Compound | Unified cytotox (HepG2 cells) [µM] | IC50 [1] [nM] | Is compound selective in assay? Pf FGAA active? [2]
COc1cccc(CCNC(C)Cc2ccc(OCCCCOc3ccccc3)cc2)c1 (stereo not drawn) [TCMDC-140020] | 1.46 | 1510 | 0 (0: NO)
Cl.N=C1C=C(N)C(=O)c2ccccc21 [TCMDC-141992] | 0.52 | 11900 | 0 (0: NO)
CC(NCCc1cccc(Cl)c1)C(O)c1ccc(OCCCCCCOc2ccc(C(O)C(C)NCCc3cccc(Cl)c3)cc2)cc1 (stereo not drawn) [TCMDC-139334] | 2.63 | 1000 | 0 (0: NO)
CN(C)CCCNCc1ccc(-c2ccc(C(F)(F)F)cc2)cc1 [TCMDC-140011] | 4.90 | 1680 | 0 (0: NO)
COc1ccc(NC(=O)c2cccc(Br)c2)cc1N1CCN(CCCCCCCN2CCN(c3cc(NC(=O)c4cccc(Br)c4)ccc3OC)CC2)CC1.Cl [TCMDC-139020] | 6.03 | 1060 | 0 (0: NO)
CN1CCCC1CCNc1ncc2c(-c3ccc(NC(=O)Nc4cc(C(F)(F)F)ccc4F)c(F)c3)nn(C)c2n1.O=C(O)C(F)(F)F (stereo not drawn) [TCMDC-141610] | 4.62 | 1470 | 0 (0: NO)
CC(Cc1ccc(NC(=O)c2ccc(CC(C)NCc3ccc(Cl)cc3)cc2)cc1)NCCc1cccc(Cl)c1 (stereo not drawn) [TCMDC-139810] | 4.03 | 860 | 0 (0: NO)
Clc1cccc(C23N=C(Nc4nc5ccccc5[nH]4)NC2(c2ccccc2)NC(Nc2nc4ccccc4[nH]2)=N3)c1 (stereo not drawn) [TCMDC-139089] | 42.76 | 150 | 1 (1: YES)
CC(Cc1ccc(NC(=O)c2ccc(CNCCc3ccccc3)cc2)cc1)NCCc1cccc(Cl)c1.Cl (stereo not drawn) [TCMDC-139867] | 4.17 | 2070 | 0 (0: NO)
CCOc1ccc2c(=NN=Cc3cc(OC)c(OC)cc3OC)cc(C)[nH]c2c1 [TCMDC-142207] | 12.17 | 1220 | 0 (0: NO)
COc1ccc2nc(N=C3NC4(c5ccccc5)NC(=Nc5nc6ccc(OC)cc6[nH]5)NC4(c4ccccc4)N3)[nH]c2c1.O=C(O)C(F)(F)F (stereo not drawn) [TCMDC-139632] | 62.72 | 120 | 1 (1: YES)
CCCCCCCN1CC[C@@H](CCCc2ccnc3ccc(OC)cc23)[C@@H](CNC)C1.O=C(O)C(=O)O [TCMDC-139875] | 5.89 | 730 | 0 (0: NO)
CN1CCC=C(C(=O)NCC(C)(C)c2nc(-c3ccc(Cl)c(O)c3)c(-c3ccncc3)[nH]2)C1.Cl [TCMDC-140700] | 13.36 | 1910 | 0 (0: NO)
CC(=O)Nc1ccc2[nH]cc(C3CCN(CC4CCN(C(=O)/C=C/c5ccc(Cl)c(Cl)c5)CC4)CC3)c2n1 [TCMDC-140112] | 12.59 | 1380 | 0 (0: NO)
COC(=O)c1ccc(-c2ccc(C(=O)NCC3CCN(c4nc(N)c5cc(OC)c(OC)cc5n4)CC3)cc2)cc1 [TCMDC-138721] | 6.10 | 910 | 0 (0: NO)
O=C(CCC1CCCC1)N(Cc1ccc(-c2ccc(CNCCc3ccccc3)cc2)cc1)C1CCCNC1.O=C(O)C(F)(F)F (stereo not drawn) [TCMDC-141444] | 5.19 | 1980 | 0 (0: NO)
Cc1ccc(Cn2nc(Cl)c(N3CCNCC3)cc2=O)cc1NC(=O)Nc1ccc(-c2ccccc2)cc1.O=C(O)C(F)(F)F [TCMDC-141698] | 4.79 | 440 | 1 (1: YES)
O=C(NCCCCN1CCC(c2ccc3c(c2OCCN2CCCC2)CCCC3)CC1)c1ccc(-c2ccc(C(F)(F)F)cc2)cc1 [TCMDC-138768] | 5.39 | 1980 | 0 (0: NO)
Cl.OC(CNCCCCCCNCC(O)c1ccc(Cl)c(Cl)c1)c1ccc(Cl)c(Cl)c1 (stereo not drawn) [TCMDC-141987] | 4.27 | 900 | 0 (0: NO)
CN(C)CCOc1ccc(NC(=O)NC(C)(C)c2nc(-c3ccc(Cl)c(O)c3)c(-c3ccncc3)[nH]2)cc1.Cl [TCMDC-140744] | 14.30 | 730 | 1 (1: YES)
CCc1ccc(C2CCN(CCCCNC(=O)c3ccc(NC(=O)c4ccc(Cl)cc4)cc3)CC2)c(OCCO)c1 [TCMDC-138703] | 5.37 | 2250 | 0 (0: NO)

Compound | Unified cytotox (HepG2 cells) [µM] | IC50 [1] [nM] | Is compound selective in assay? Pf FGAA active? [2]
CC(C)(C)c1ccc(CNC(=O)c2cc(CNC3CCNCC3)ccc2O)cc1 [TCMDC-140775] | 13.96 | 2000 | 0 (0: NO)
COc1ccc(-c2ccccc2)cc1NC(=S)NC1CCC(CN2CCC(c3c[nH]c4ccccc34)CC2)CC1 (stereo not drawn) [TCMDC-140182] | 5.50 | 1650 | 0 (0: NO)
CC(C)(C)c1ccc(CNC(=O)c2ccc(CNC3CCC(N)CC3)s2)cc1 (stereo not drawn) [TCMDC-140777] | 8.95 | 2440 | 0 (0: NO)
COc1cc2nc(N3CCC(CNC(=O)c4ccc(-c5ccc(Cl)cc5)cc4)CC3)nc(N)c2cc1OC [TCMDC-138718] | 4.22 | 890 | 0 (0: NO)
Cl.O=C(NCCCCN1CCC(c2ccc3c(c2O)CCCC3)CC1)c1ccc(NC(=O)c2ccc(Cl)cc2)cc1 [TCMDC-138645] | 3.80 | 1490 | 0 (0: NO)
CN(C)CCN1CCN(CCCN2c3ccccc3Sc3ccc(C(F)(F)F)cc32)CC1.Cl [TCMDC-142257] | 77.62 | 5250 | 1 (1: YES)
CN1CCN(c2ccc(Nc3ncc([N+](=O)[O-])c(Nc4ccccc4O)n3)cc2)CC1.O=C(O)C(F)(F)F [TCMDC-141372] | 1.82 | 2010 | 0 (0: NO)
O=C(NC1CCN(CCN2CCC(c3c[nH]c4ccccc34)CC2)CC1)c1ccc(-c2ccc(C(F)(F)F)cc2)cc1 [TCMDC-138845] | 4.68 | 1800 | 0 (0: NO)
Cc1c(Cn2nc(Cl)c(N3CCNCC3)cc2=O)cccc1NC(=O)Nc1ccc(-c2ccccc2)cc1.O=C(O)C(F)(F)F [TCMDC-141699] | 4.22 | 4910 | 0 (0: NO)
CN1CCN(CCCNc2ncc3c(-c4ccc(NC(=O)Nc5cc(C(F)(F)F)ccc5F)c(F)c4)nn(C)c3n2)CC1.O=C(O)C(F)(F)F [TCMDC-141611] | 4.90 | 870 | 0 (0: NO)
Cl.O=S(=O)(Nc1cc2c(cc1OCCCN1CCCCC1)CCNCC2)c1ccc(-c2ccc(Cl)cc2)cc1 [TCMDC-141753] | 4.37 | 2000 | 0 (0: NO)
N=C(N)Nc1nc(-c2ccc(NCc3ccc(CNc4cccc(-c5csc(NC(=N)N)n5)c4)cc3)cc2)cs1 [TCMDC-140699] | 4.79 | 900 | 0 (0: NO)
Nc1ccc2[nH]cc(C3CCN(CC4CCN(C(=O)/C=C/c5ccc(Cl)c(Cl)c5)CC4)CC3)c2n1 [TCMDC-140061] | 5.89 | 1770 | 0 (0: NO)
CC(C)Cn1cc(C2CCN(CCN3CCC(CNC(=O)c4ccc(-c5ccc(C#N)cc5)cc4)CC3)CC2)c2ccccc21 [TCMDC-138849] | 4.79 | 1030 | 0 (0: NO)
Cc1cc(N)c2cc(NC(=O)c3cc(C(F)(F)F)cc(C(F)(F)F)c3)ccc2n1.Cl [TCMDC-139377] | 2.60 | 860 | 0 (0: NO)
O=C(Nc1ccc(-c2ccccc2)c(OCCN2CCNCC2)c1)c1ccc(-c2ccc(Cl)cc2)cc1 [TCMDC-138818] | 4.95 | 1380 | 0 (0: NO)
c1ccc(-c2nc(Nc3nc4ccccc4[nH]3)[nH]c2-c2ccccc2)cc1 [TCMDC-139099] | 10.98 | 580 | 1 (1: YES)
CNCC(C)(C)c1nc(-c2ccc(Cl)c(O)c2)c(-c2ccncc2)[nH]1.Cl [TCMDC-140762] | 13.52 | 880 | 1 (1: YES)
CN1CCN(c2cc3c(cc2Cl)CCN3C(=O)Nc2ccc(NC(=O)c3ccc(C(F)(F)F)cc3)cc2)CC1.Cl [TCMDC-139270] | 3.99 | 690 | 0 (0: NO)
c1ccc(C23N=C(Nc4nc5ccccc5[nH]4)NC2(c2ccccc2)NC(Nc2nc4ccccc4[nH]2)=N3)cc1 (stereo not drawn) [TCMDC-139082] | 58.90 | 140 | 1 (1: YES)
CC1(CCN2CCC(c3c[nH]c4cnccc34)CC2)CCCc2c(Br)cccc2C1=O.Cl (stereo not drawn) [TCMDC-141171] | 5.25 | 1730 | 0 (0: NO)
